Patent US6583154B1, “Compounds and methods which modulate feeding behavior and related diseases” (Amgen Inc., priority 1998, dated 2003)
Where a name gives a salt, the structure may show the parent alone.

Experiments:
Male BALB-C mice = test: IP administration of compounds in fasted male BALB-C mice, 2 hr food intake; format: in vivo; details: Mus musculus; male BALB-C mice fasted 18-20 hr; 30 mg/kg (ip) in 2% tween; food given after 30 min, weighed 2 hr later; vs vehicle; read-out: inhibition of feeding (2 hr food intake)
Text: Protocol For IP Administration Of Compounds In Male BALB-C Mice.
Male BALB-C mice (20-25 g)were obtained from Charles Rivers (Wilmington, Mass.) and were given at least a one week acclimation period to Amgen's animal care facilities. Animals were housed 10/cage and were provided ad libitum food and water. For testing, mice were fasted for 18-20 hr (overnight) prior to the start of the experiment. On the day of the experiment, mice were removed from group housing and placed into individual cages (without food). Test compounds or vehicle was then administered via the intraperitoneal (i.p.) route of administration. Test compounds were suspended in a 2% tween solution; the 2% tween solution was used as the vehicle treatment (control group). Group sizes for each treatment were 6-8 animals. After 30 min, premeasured food was placed into the cages. Two hours later, the food was weighed again. The difference between 2 hr weight and the premeasured weight was taken as 2 hr food intake.

Long-Evans male rats = test: IP administration of compounds in fasted Long-Evans male rats, 2 hr food intake; format: in vivo; details: Rattus norvegicus; male Long Evans rats fasted 18-20 hr; 30 mg/kg (ip) in 2% tween; food given after 30 min, weighed 2 hr later; vs vehicle; read-out: inhibition of feeding (2 hr food intake)
Method: Protocol for IP Administration of Compounds in Fasted Long-Evans Male Rats
Male Long Evans rats (85-100 g)were obtained from Harlan (Indianapolis, Ind.) and were given at least a one week acclimation period to Ambients animal care facilities. Animals were individually housed and were provided ad libitum food and water. For testing, rats were fasted for 18-20 hr (overnight) prior to the start of the experiment. On the test day, test compounds or vehicle was administered via the intraperitoneal (i.p.) route of administration. Test compounds were suspended in a 2% tween solution; the 2% tween solution was used as the vehicle treatment (control group). Group sizes for each treatment were 6-8 animals. After 30 min, premeasured food was placed into the cages. Two hours later, the food was weighed again. The difference between 2 hr weight and the premeasured weight was taken as 2 hr food intake.

Row | melting point | SMILES | inhibition in vivo at 30 mg/kg (Male BALB-C mice) | inhibition in vivo at 30 mg/kg (Long-Evans male rats)
1 | – | Cc1nc(N2CCCCC2C)c2[nH]c(-c3ccccc3)cc2n1 (stereo not shown) [Example 63, 2-Methyl-6-phenyl-4-(2-methylpiperidinyl)pyrrolo(3,2-d)pyrimidine Hydrochloride Monohydrate] | ≥ 10% | ≥ 10%
2 | – | Cc1nc(N2CC=CCC2)c2[nH]c(-c3ccccc3)cc2n1 [Example 65, 2-Methyl-6-phenyl-4-(1,2,3,6-tetrahydropyridinyl)pyrrolo[3,2-d]pyrimidine Hydrochloride] | ≥ 10% | ≥ 10%
3 | – | Nc1nc(N2CCCCC2)c2[nH]c(-c3ccccc3)cc2n1 [Example 66e, 6-Phenyl-4-piperidylpyrrolo[3,2-d]pyrimidine-2-yl Amine Hydrochloride Hydrate] | ≥ 10% | ≥ 10%
4 | – | CCc1nc(N2CCCCC2)c2[nH]c(-c3ccccc3)cc2n1 [Example 68c, 2-Ethyl-6-phenyl-4-piperidylpyrrolo[3,2-d]pyrimidine Hydrochloride Monohydrate] | ≥ 10% | ≥ 10%
5 | 285.4 to 286 °C (dec.) | Cl.c1ccc(-c2cc3nc(C4CC4)nc(N4CCCCC4)c3[nH]2)cc1 [Example 69c, 2-Cyclopropyl-6-phenyl-4-piperidylpyrrolo[3,2-d]pyrimidine Hydrochloride] | ≥ 10% | ≥ 10%
6 | – | COc1ccc(-c2cc3nc(C)nc(N4CCCCC4)c3[nH]2)cc1 [Example 71e, 4-Methoxy-1-(2-methyl-4-piperidylpyrrolo[4,5-d]pyrimidin-6-yl)benzene Hydrochloride Monohydrate] | ≥ 10% | ≥ 10%
7 | – | Cc1nc(N2CCCCC2)c2[nH]c(-c3ccc(O)cc3)cc2n1 [Example 72, 2-methyl-4-piperidyl-6-(4-hydroxyphenyl)pyrrolo[3,2-d]pyrimidine] | ≥ 10% | ≥ 10%
8 | > 280 °C | Cc1nc(N2CCCCC2)c2[nH]c(-c3cccs3)cc2n1.Cl [Example 76c, 2-(2-Methyl-4-piperidylpyrrolo[4,5-d]pyrimidin-6-yl)thiophene Hydrochloride] | ≥ 10% | ≥ 10%
9 | – | Cc1nc(N2CCCCC2)c2[nH]c(C3CCCCC3)cc2n1 [Example 80d, 6-Cyclohexyl-2-methyl-4-piperidylpyrrolo[3,2-d]pyrimidine Hydrochloride Hydrate] | ≥ 10% | ≥ 10%
10 | – | Cc1nc(N2CCCCC2)c2[nH]c(-c3cc4ccccc4o3)cc2n1 [Example 85, 2-(2-Methyl-4-piperidylpyrrolo[4,5-d]pyrimidin-6-yl)benzo[b]furan Hydrochloride Monohydrate] | ≥ 10% | ≥ 10%
11 | – | Cc1nc(N2CCCCC2)c2oc(-c3ccc(Cl)cc3)cc2n1 [Example 95c, 6-(4-Chlorophenyl)-2-methyl-4-piperidinylfurano-[3,2-d]-pyrimidine Hydrochloride Hydrate] | ≥ 10% | ≥ 10%
12 | > 288 °C | CCc1nc(N2CCCCC2)c2oc(-c3ccc(Cl)cc3)cc2n1 [Example 96, 6-(4-Chlorophenyl)-2-ethyl-4-piperidinylfurano[3,2-d]pyrimidine] | ≥ 10% | ≥ 10%
13 | – | Cc1nc(N2CCCCC2)c2[nH]c(C(C)(C)C)cc2n1 [Example 97, 6-(tert-Butyl)-2-methyl-4-piperidylpyrrolo[3,2-d]pyrimidine Hydrochloride Hydrate] | ≥ 10% | ≥ 10%
14 | – | Cc1nc(N2CCCCC2)c2[nH]c(-c3ccn(S(=O)(=O)c4ccccc4)c3)cc2n1 [Example 101, 3-(2-Methyl-4-piperidylpyrrolo[4,5-d]pyrimidin-6-yl)-1-(phenylsulfonyl)pyrrole Hydrochloride Hydrate] | ≥ 10% | ≥ 10%
15 | – | Cc1nc(N2CCCCC2)c2[nH]c(-c3cc(C)oc3C)cc2n1 [Example 108, 2,5-Dimethyl-3-(2-methyl-4-piperidylpyrrolo[4,5-d]pyrimidin-6-yl)furan Hydrochloride Monohydrate] | ≥ 10% | ≥ 10%
16 | – | Cc1nc(N2CCCCC2)c2[nH]c(-c3ccc(C(F)(F)F)cc3)cc2n1 [Example 111, 2-Methyl-4-piperidyl-6-[4-(trifluoromethyl)phenyl]pyrrolo[3,2-d]pyrimidine Hydrochloride Hydrate] | ≥ 10% | ≥ 10%
17 | – | Cc1nc(N2CCCCC2)c2[nH]c(-c3cc(F)c(F)c(F)c3)cc2n1 [Example 116, 2-Methyl-4-piperidyl-6-(3,4,5-trifluorophenyl)pyrrolo[3,2-d]pyrimidine Hydrochloride Hydrate] | ≥ 10% | ≥ 10%
18 | – | Cc1nc(N2CCCCC2)c2[nH]c(-c3ccc(Cl)c(Cl)c3)cc2n1 [Example 118, 6-(3,4-Dichlorophenyl)-2-methyl-4-piperidylpyrrolo[3,2-d]pyrimidine Hydrochloride Monohydrate] | ≥ 10% | ≥ 10%
19 | – | COc1ccc(-c2cc3nc(C)nc(N4CCCCC4)c3[nH]2)cc1F [Example 119, 2-Fluoro-1-methoxy-4-[2-methyl-4-piperidylpyrrolo[4,5-d]pyrimidin-6-yl]benzene Hydrochloride Hydrate] | ≥ 10% | ≥ 10%
20 | – | Cc1nc(N2CCCCC2)c2[nH]c(-c3ccc(F)c(F)c3)cc2n1 [Example 121, 6-(3,4-Difluorophenyl)-2-methyl-4-piperidylpyrrolo[3,2-d]pyrimidine Hydrochloride Hydrate] | ≥ 10% | ≥ 10%
21 | – | Cc1nc(N2CCCCC2)c2[nH]c(-c3cc(C(F)(F)F)cc(C(F)(F)F)c3)cc2n1.Cl [Example 122, 6-((3,5-bis(Trifluoromethyl)phenyl)-2-methyl-4-piperidylpyrrolo[3,2-d]pyrimidine Hydrochloride] | ≥ 10% | ≥ 10%
22 | – | Cc1nc(N2CCCCC2)c2[nH]c(-c3ccc(SC(F)(F)F)cc3)cc2n1 [Example 123, Trifluoro[4-(2-methyl-4-piperidylpyrrolo[4,5-d]pyrimidin-6-yl)phenylthio]methane Hydrochloride Monohydrate] | ≥ 10% | ≥ 10%
23 | – | Cc1nc(N2CCCCC2)c2[nH]c(-c3ccc(C)c(C)c3)cc2n1 [Example 124, 6-(3,4-Dimethylphenyl)-2-methyl-4-piperidylpyrrolo[3,2-d]pyrimidine Hydrochloride Hydrate] | ≥ 10% | ≥ 10%
24 | – | Cc1nc(NC[C@H]2CC[C@H](CNS(=O)(=O)c3cccc4ccccc34)CC2)c2[nH]c(-c3ccccc3)cc2n1 [Example 194, trans-[(4-{[(2-Methyl-6-phenylpyrrolo[2,3-e]pyrimidin-4-yl)amino]methyl}cyclohexyl)methyl](naphthylsulfonyl)amine Hydrochloride Hydrate] | ≥ 10% | ≥ 10%
25 | – | Cc1nc(N2CCCCC2)c2[nH]c(-c3ccc(OC(F)(F)F)cc3)cc2n1 [Example 195d, Trifluoro[4-(2-methyl-4-piperidylpyrrolo[4,5-d]pyrimidin-6-yl)phenoxylmethane Hydrochloride Monohydrate] | ≥ 10% | ≥ 10%
26 | – | CCCc1nc(N2CCCCC2)c2[nH]c(-c3ccccc3)cc2n1 [Example 196c, 6-Phenyl-4-piperidyl-2-propylpyrrolo[3,2-d]pyrimidine Hydrochloride Monohydrate] | ≥ 10% | ≥ 10%
27 | – | Cc1nc(N2CC=CC2)c2[nH]c(-c3cccc(C(F)(F)F)c3)cc2n1 [Example 197d, 2-Methyl-4-(3-pyrrolinyl)-6-[3-(trifluoromethyl)phenyl]pyrrolo[3,2-d]pyrimidine Hydrochloride Monohydrate] | ≥ 10% | ≥ 10%
28 | – | Cc1nc(N2CC=CC2)c2[nH]c(-c3cccc(Cl)c3)cc2n1 [Example 198, 6-(3-Chlorophenyl)-2-methyl-4-(3-pyrrolinyl)pyrrolo[3,2-d]pyrimidine Hydrochloride Hydrate] | ≥ 10% | ≥ 10%
29 | – | Cc1nc(N2CCCCC2)c2sc(-c3ccc(F)cc3)cc2n1 [Example 217, 6-(4-Fluorophenyl)-2-methyl-4-piperidylthiopheno[3,2-d]pyrimidine Hydrochloride Hydrate] | ≥ 10% | ≥ 10%
